{"source": "paper PMC8037182", "about": "“Solvothermal Synthesis of Multiple Dihydropyrimidinones at a Time as Inhibitors of Eg5” (Molecules, 2021)", "key": {"Hela cell line": {"test_system": "Hela cell line", "test": "Cytotoxicity MTS assay, Hela cell line", "type": "cell-based", "conditions": "for OD490 value, Mean / OD490 value, Well 1 / OD490 value, Well 2 / OD490 value, Well 3: Hela cell line, MTS", "protocol": "(§1) The positive compounds (IC50 < 100 μM) obtained from the primary Eg5 motor protein ATPase assay were tested for antiproliferative activity in vitro against Caco-2 cell line, Hela cell line, L929 cell line and T24 cell line by performing MTS assay. Cells were introduced into 96-well plates at a density of 1000 cells per well. After 24 h incubation, the cells were exposed with compounds at final concentrations ranging from 0.5 to 100 µM for 24 h. DMSO was used at a final concentration of 0.025% as blank control, monastrol was used as the positive control. Then 20 µL (CellTiter 96® AQueous One Solution Promega, Madison, WI, USA) reagent was added in each well. After 2 h at 37 °C in a 80% humidified, 5% CO2 atmosphere, the absorbance at 490 nm was recorded using a microplate reader (BIO-RAD iMark^TM). The results were obtained in three independent duplicate experiments. The primary data were shown in Supplementary Materials Tables S4–S7. The IC50 values for these compounds were calculated from a non-linear regression graph plotted between the percentage of cell viability and concentration with SPSS17.0 software."}, "T24 cell line": {"test_system": "T24 cell line", "test": "Cytotoxicity MTS assay, T24 cell line", "type": "cell-based", "conditions": "for OD490 Mean / OD490 Well 1 / OD490 Well 2 / OD490 Well 3: T24 cell line, first assay", "protocol": "as §1"}}}
{"smiles": "CCOC(=O)c1[nH]c(C2NC(=O)NC(C)=C2C(=O)Nc2ccccc2OC)c(C(=O)OC)c1C", "note": "(centres unmarked) [D3]", "values": [{"measurement": "OD490 value, Mean", "setting": "Hela cell line; 0.5μM, first assay", "value": 2.7753}, {"measurement": "OD490 value, Well 1", "setting": "Hela cell line; 0.5μM, first assay", "value": 2.9485}, {"measurement": "OD490 value, Well 2", "setting": "Hela cell line; 0.5μM, first assay", "value": 2.6032}, {"measurement": "OD490 value, Well 3", "setting": "Hela cell line; 0.5μM, first assay", "value": 2.7743}, {"measurement": "OD490 value, Mean", "setting": "Hela cell line; 0.5μM, second assay", "value": 2.7117}, {"measurement": "OD490 value, Well 1", "setting": "Hela cell line; 0.5μM, second assay", "value": 2.7664}, {"measurement": "OD490 value, Well 2", "setting": "Hela cell line; 0.5μM, second assay", "value": 2.9230}, {"measurement": "OD490 value, Well 3", "setting": "Hela cell line; 0.5μM, second assay", "value": 2.4458}, {"measurement": "OD490 value, Mean", "setting": "Hela cell line; 0.5μM, third assay", "value": 2.8303}, {"measurement": "OD490 value, Well 1", "setting": "Hela cell line; 0.5μM, third assay", "value": 2.8863}, {"measurement": "OD490 value, Well 2", "setting": "Hela cell line; 0.5μM, third assay", "value": 2.8745}, {"measurement": "OD490 value, Well 3", "setting": "Hela cell line; 0.5μM, third assay", "value": 2.7301}, {"measurement": "OD490 value, Mean", "setting": "Hela cell line; 1μM, first assay", "value": 2.5355}, {"measurement": "OD490 value, Well 1", "setting": "Hela cell line; 1μM, first assay", "value": 2.6242}, {"measurement": "OD490 value, Well 2", "setting": "Hela cell line; 1μM, first assay", "value": 2.5242}, {"measurement": "OD490 value, Well 3", "setting": "Hela cell line; 1μM, first assay", "value": 2.4580}, {"measurement": "OD490 value, Mean", "setting": "Hela cell line; 1μM, second assay", "value": 2.6019}, {"measurement": "OD490 value, Well 1", "setting": "Hela cell line; 1μM, second assay", "value": 2.7530}, {"measurement": "OD490 value, Well 2", "setting": "Hela cell line; 1μM, second assay", "value": 2.3014}, {"measurement": "OD490 value, Well 3", "setting": "Hela cell line; 1μM, second assay", "value": 2.7514}, {"measurement": "OD490 value, Mean", "setting": "Hela cell line; 1μM, third assay", "value": 2.6769}, {"measurement": "OD490 value, Well 1", "setting": "Hela cell line; 1μM, third assay", "value": 2.6365}, {"measurement": "OD490 value, Well 2", "setting": "Hela cell line; 1μM, third assay", "value": 2.7412}, {"measurement": "OD490 value, Well 3", "setting": "Hela cell line; 1μM, third assay", "value": 2.6531}, {"measurement": "OD490 value, Mean", "setting": "Hela cell line; 10μM, first assay", "value": 2.6047}, {"measurement": "OD490 value, Well 1", "setting": "Hela cell line; 10μM, first assay", "value": 2.6883}, {"measurement": "OD490 value, Well 2", "setting": "Hela cell line; 10μM, first assay", "value": 2.6311}, {"measurement": "OD490 value, Well 3", "setting": "Hela cell line; 10μM, first assay", "value": 2.4948}, {"measurement": "OD490 value, Mean", "setting": "Hela cell line; 10μM, second assay", "value": 2.6182}, {"measurement": "OD490 value, Well 1", "setting": "Hela cell line; 10μM, second assay", "value": 2.7032}, {"measurement": "OD490 value, Well 2", "setting": "Hela cell line; 10μM, second assay", "value": 2.6012}, {"measurement": "OD490 value, Well 3", "setting": "Hela cell line; 10μM, second assay", "value": 2.5503}, {"measurement": "OD490 value, Mean", "setting": "Hela cell line; 10μM, third assay", "value": 2.6419}, {"measurement": "OD490 value, Well 1", "setting": "Hela cell line; 10μM, third assay", "value": 2.7745}, {"measurement": "OD490 value, Well 2", "setting": "Hela cell line; 10μM, third assay", "value": 2.6563}, {"measurement": "OD490 value, Well 3", "setting": "Hela cell line; 10μM, third assay", "value": 2.4949}, {"measurement": "OD490 value, Mean", "setting": "Hela cell line; 25μM, first assay", "value": 2.3973}, {"measurement": "OD490 value, Well 1", "setting": "Hela cell line; 25μM, first assay", "value": 2.3040}, {"measurement": "OD490 value, Well 2", "setting": "Hela cell line; 25μM, first assay", "value": 2.5337}, {"measurement": "OD490 value, Well 3", "setting": "Hela cell line; 25μM, first assay", "value": 2.3542}, {"measurement": "OD490 value, Mean", "setting": "Hela cell line; 25μM, second assay", "value": 2.3999}, {"measurement": "OD490 value, Well 1", "setting": "Hela cell line; 25μM, second assay", "value": 2.5301}, {"measurement": "OD490 value, Well 2", "setting": "Hela cell line; 25μM, second assay", "value": 2.4698}, {"measurement": "OD490 value, Well 3", "setting": "Hela cell line; 25μM, second assay", "value": 2.1998}, {"measurement": "OD490 value, Mean", "setting": "Hela cell line; 25μM, third assay", "value": 2.4241}, {"measurement": "OD490 value, Well 1", "setting": "Hela cell line; 25μM, third assay", "value": 2.5355}, {"measurement": "OD490 value, Well 2", "setting": "Hela cell line; 25μM, third assay", "value": 2.5124}, {"measurement": "OD490 value, Well 3", "setting": "Hela cell line; 25μM, third assay", "value": 2.2245}, {"measurement": "OD490 value, Mean", "setting": "Hela cell line; 50μM, first assay", "value": 2.2890}, {"measurement": "OD490 value, Well 1", "setting": "Hela cell line; 50μM, first assay", "value": 2.3872}, {"measurement": "OD490 value, Well 2", "setting": "Hela cell line; 50μM, first assay", "value": 2.2920}, {"measurement": "OD490 value, Well 3", "setting": "Hela cell line; 50μM, first assay", "value": 2.1878}, {"measurement": "OD490 value, Mean", "setting": "Hela cell line; 50μM, second assay", "value": 2.2189}, {"measurement": "OD490 value, Well 1", "setting": "Hela cell line; 50μM, second assay", "value": 2.3332}, {"measurement": "OD490 value, Well 2", "setting": "Hela cell line; 50μM, second assay", "value": 2.3089}, {"measurement": "OD490 value, Well 3", "setting": "Hela cell line; 50μM, second assay", "value": 2.0147}, {"measurement": "OD490 value, Mean", "setting": "Hela cell line; 50μM, third assay", "value": 2.2950}, {"measurement": "OD490 value, Well 1", "setting": "Hela cell line; 50μM, third assay", "value": 2.4301}, {"measurement": "OD490 value, Well 2", "setting": "Hela cell line; 50μM, third assay", "value": 2.3354}, {"measurement": "OD490 value, Well 3", "setting": "Hela cell line; 50μM, third assay", "value": 2.1196}, {"measurement": "OD490 value, Mean", "setting": "Hela cell line; 100μM, first assay", "value": 1.7776}, {"measurement": "OD490 value, Well 1", "setting": "Hela cell line; 100μM, first assay", "value": 1.7277}, {"measurement": "OD490 value, Well 2", "setting": "Hela cell line; 100μM, first assay", "value": 1.8895}, {"measurement": "OD490 value, Well 3", "setting": "Hela cell line; 100μM, first assay", "value": 1.7156}, {"measurement": "OD490 value, Mean", "setting": "Hela cell line; 100μM, second assay", "value": 1.7632}, {"measurement": "OD490 value, Well 1", "setting": "Hela cell line; 100μM, second assay", "value": 1.6245}, {"measurement": "OD490 value, Well 2", "setting": "Hela cell line; 100μM, second assay", "value": 1.8996}, {"measurement": "OD490 value, Well 3", "setting": "Hela cell line; 100μM, second assay", "value": 1.7654}, {"measurement": "OD490 value, Mean", "setting": "Hela cell line; 100μM, third assay", "value": 1.7923}, {"measurement": "OD490 value, Well 1", "setting": "Hela cell line; 100μM, third assay", "value": 1.6654}, {"measurement": "OD490 value, Well 2", "setting": "Hela cell line; 100μM, third assay", "value": 1.8247}, {"measurement": "OD490 value, Well 3", "setting": "Hela cell line; 100μM, third assay", "value": 1.8869}, {"measurement": "IC50", "setting": "Hela cell line; MTS assay, 24 h exposure", "value": 115, "unit": "µM"}, {"measurement": "IC50", "setting": "T24 cell line; MTS assay, 24 h exposure", "value": "> 150", "unit": "µM"}, {"measurement": "OD490 Mean", "setting": "T24 cell line; 0.5μM", "value": 1.8317}, {"measurement": "OD490 Well 1", "setting": "T24 cell line; 0.5μM", "value": 1.9267}, {"measurement": "OD490 Well 2", "setting": "T24 cell line; 0.5μM", "value": 1.7284}, {"measurement": "OD490 Well 3", "setting": "T24 cell line; 0.5μM", "value": 1.8399}, {"measurement": "OD490 Mean", "setting": "T24 cell line; 1μM", "value": 1.4215}, {"measurement": "OD490 Well 1", "setting": "T24 cell line; 1μM", "value": 1.4512}, {"measurement": "OD490 Well 2", "setting": "T24 cell line; 1μM", "value": 1.4430}, {"measurement": "OD490 Well 3", "setting": "T24 cell line; 1μM", "value": 1.3702}, {"measurement": "OD490 Mean", "setting": "T24 cell line; 10μM", "value": 1.5897}, {"measurement": "OD490 Well 1", "setting": "T24 cell line; 10μM", "value": 1.3957}, {"measurement": "OD490 Well 2", "setting": "T24 cell line; 10μM", "value": 1.6776}, {"measurement": "OD490 Well 3", "setting": "T24 cell line; 10μM", "value": 1.6957}, {"measurement": "OD490 Mean", "setting": "T24 cell line; 25μM", "value": 1.4932}, {"measurement": "OD490 Well 1", "setting": "T24 cell line; 25μM", "value": 1.4267}, {"measurement": "OD490 Well 2", "setting": "T24 cell line; 25μM", "value": 1.6194}, {"measurement": "OD490 Well 3", "setting": "T24 cell line; 25μM", "value": 1.4336}, {"measurement": "OD490 Mean", "setting": "T24 cell line; 50μM", "value": 1.4228}, {"measurement": "OD490 Well 1", "setting": "T24 cell line; 50μM", "value": 1.3624}, {"measurement": "OD490 Well 2", "setting": "T24 cell line; 50μM", "value": 1.4440}, {"measurement": "OD490 Well 3", "setting": "T24 cell line; 50μM", "value": 1.4620}, {"measurement": "OD490 Mean", "setting": "T24 cell line; 100μM", "value": 1.3750}, {"measurement": "OD490 Well 1", "setting": "T24 cell line; 100μM", "value": 1.3903}, {"measurement": "OD490 Well 2", "setting": "T24 cell line; 100μM", "value": 1.4568}, {"measurement": "OD490 Well 3", "setting": "T24 cell line; 100μM", "value": 1.2780}]}
